Laboratory results from patent publication US20040170685A1, “Bioactive stents and methods for use thereof” (MediVas, LLC, priority 2003, published 2004).

Tested on: human aortic smooth muscle cells (SMC)
Assay: Adhesion and proliferation of smooth muscle cells on gelatin coated culture plates, microscopic observation
Assay type: cell-based
Conditions: bioagent 100? m
Description: This Example illustrates the effect of different concentrations of bioactive agents on adhesion and proliferation of epithelial cells (EC) and smooth muscle cells (SMC) on gelatin coated surfaces.
Human Coronary artery endothelial cells (EC) plated on gelatin coated culture plates were co-cultured with EC special media containing one of the bioactive agents shown in Table 1 below in the various concentrations shown.
Twenty four hours later the cells were observed microscopically, stained with trypan blue and counted. The results of the microscopic observation of cell morphology and confluency of culturing the EC in the presence of the Bioagents tested are summarized in Table 2 below. The effect of the various bioagents on EC adhesion and proliferation is shown graphically in FIG. 2.
Effect of different concentrations of the bioagents listed above in Table 1 was also tested using human aortic smooth muscle cells (SMC) under similar conditions as described for EC. The results of the bioagents on adhesion and proliferation of SMC plated on gelatin coated culture plates are summarized in Table 3 below and shown graphically in FIG. 3.

## CCCCCCCCCCCCC/C=C/[C@@H](O)[C@@H](N)COP(=O)(O)O [S1P, Sphingosine 1-Phosphate]
  Microscopic observation for the SMC morphology and Confluency: 100% cells died
